Test results published in ChEMBL document CHEMBL1128123, “Inhibitors of acyl-CoA: Cholesterol O-acyl transferase (ACAT) as hypocholesterolemic agents. 12. Syntheses and biological activity of structurally novel tetrazole amides” (Bioorg Med Chem Lett, 1995).

Tests used:
[1] = organism: Rattus norvegicus; assay: Percent change in total cholesterol in cholic acid (0.5%)-cholesterol (1.5%)-peanut oil (5.5%)-fed rats; assay type: functional
[2] = molecular target: T1, Sterol O-acyltransferase 1 (Rattus norvegicus, UniProt O70536); assay: Concentration required for the in vitro inhibition of Acyl coenzyme A:cholesterol acyltransferase (ACAT) in liver microsomes isolated from cholesterol-fed rats; parameters: species or system Microsome
T1 sequence (O70536 whole entry): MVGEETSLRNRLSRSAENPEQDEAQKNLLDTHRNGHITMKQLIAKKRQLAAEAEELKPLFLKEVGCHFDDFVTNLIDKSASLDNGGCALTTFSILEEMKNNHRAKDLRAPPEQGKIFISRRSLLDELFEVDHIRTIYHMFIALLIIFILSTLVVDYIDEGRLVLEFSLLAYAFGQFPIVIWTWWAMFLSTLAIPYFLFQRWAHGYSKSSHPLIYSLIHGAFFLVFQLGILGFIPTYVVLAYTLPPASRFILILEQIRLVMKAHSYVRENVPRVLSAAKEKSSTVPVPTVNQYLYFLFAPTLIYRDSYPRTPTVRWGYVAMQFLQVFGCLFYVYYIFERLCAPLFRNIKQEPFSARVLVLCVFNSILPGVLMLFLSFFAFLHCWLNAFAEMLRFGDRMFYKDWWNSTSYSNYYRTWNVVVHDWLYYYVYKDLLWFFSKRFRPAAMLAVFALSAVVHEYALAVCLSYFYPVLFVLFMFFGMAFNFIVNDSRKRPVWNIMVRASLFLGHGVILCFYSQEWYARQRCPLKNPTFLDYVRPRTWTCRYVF

[3] = molecular target: T2, Acyl-CoA:cholesterol acyltransferase (Oryctolagus cuniculus, UniProt Q95214); assay: Concentration required for the in vitro inhibition of Acyl coenzyme A:cholesterol acyltransferase (ACAT) in intestinal microsomes isolated from cholesterol-fed rabbits; parameters: species or system Intestine
T2 sequence (Q95214 whole entry): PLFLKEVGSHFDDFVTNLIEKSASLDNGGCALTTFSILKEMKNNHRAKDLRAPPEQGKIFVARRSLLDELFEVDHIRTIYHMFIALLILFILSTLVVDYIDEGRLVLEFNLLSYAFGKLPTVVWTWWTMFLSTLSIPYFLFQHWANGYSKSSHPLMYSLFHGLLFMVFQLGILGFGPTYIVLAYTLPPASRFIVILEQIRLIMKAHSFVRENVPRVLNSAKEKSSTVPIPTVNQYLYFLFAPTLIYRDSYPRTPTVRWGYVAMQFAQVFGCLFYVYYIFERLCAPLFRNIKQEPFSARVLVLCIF

Structure (SMILES) | Change TC [1] | IC50 [2] | IC50 [3]
CCCCCCCCCCCCn1nnc(C(NC(=O)c2ccc(C)cc2)c2ccccc2)n1 (configuration not stated) | -4% | 0.51 µM | 
CCCCCCCCCCCCn1nnc(C(NC(=O)c2c(C)cccc2C)c2ccccc2)n1 (configuration not stated) | -40% | 0.31 µM | 0.11 µM
CCCCCCCCCCCCn1nnnc1C(NC(=O)c1ccnc(SC)c1)c1ccccc1 (configuration not stated) | -37% | 0.14 µM | 
CCCCCCCCCCCCn1nnc(C(NC(=O)c2c(Cl)cccc2Cl)c2ccccc2)n1 (configuration not stated) | -26% | 0.46 µM | 
CCCCCCCn1nnc(C(NC(=O)c2c(C)cccc2C)c2ccccc2)n1 (configuration not stated) | -13% |  | 
CCCCCCCCCCCCn1nnnc1C(NC(=O)c1ccccc1C(F)(F)F)c1ccccc1 (configuration not stated) | -12% | 0.35 µM | 
CCCCCCCCCCCCn1nnc(C(NC(=O)c2ccccc2[N+](=O)[O-])c2ccccc2)n1 (configuration not stated) | -27% | 0.24 µM | 
CCCCCCCCCCCCn1nnc(C(NC(=O)c2ccccc2C(F)(F)F)c2ccccc2)n1 (configuration not stated) | -15% | 0.12 µM | 
CCCCCCCCCCCCn1nnc(C(NC(=O)c2ccc(OC)cc2)c2ccccc2)n1 (configuration not stated) | -34% | 0.6 µM | 
CCCCCCCCCCCCn1nnc(C(NC(=O)c2cccc(Cl)c2)c2ccccc2)n1 (configuration not stated) | 3% | 0.25 µM | 
CCCCCCCCCCCCn1nnc(C(NC(=O)c2ccc(F)cc2F)c2ccccc2)n1 (configuration not stated) | -10% | 0.49 µM | 
CCCCCCCCCCCCn1nnc(C(NC(=O)c2ccccc2OC)c2ccccc2)n1 (configuration not stated) | -28% | 0.65 µM | 
CCCCCCCCCCCCn1nnnc1C(NC(=O)c1ccc(F)cc1F)c1ccccc1 (configuration not stated) | -23% | 0.38 µM | 
CCCCCCCCCCCCn1nnc(C(NC(=O)c2cccc([N+](=O)[O-])c2)c2ccccc2)n1 (configuration not stated) | -33% | 0.08 µM | 
CCCCCCCCCCC(C)(C)NC(=O)c1c(OC)cc(OC)cc1OC | -10% | > 10 µM | 
CCCCCCCCCCCCn1nnnc1C(NC(=O)c1c(C)cccc1C)c1ccccc1 (configuration not stated) | -57% | 0.18 µM | 
CCCCCCCCCCCCn1nnc(C(NC(=O)c2c(C(C)C)cccc2C(C)C)c2ccccc2)n1 (configuration not stated) | 2% | 0.81 µM | 
CCCCCCCCCCCCCCCn1nnc(C(NC(=O)c2c(C)cccc2C)c2ccccc2)n1 (configuration not stated) | -14% |  | 
CCCCCCCC/C=C\CCCCCCCCNC(=O)c1c(OC)cc(OC)cc1OC |  | 9.4 µM | 
CCCCCCCCCCCCn1nnc(C(NC(=O)c2ccc(Cl)cc2)c2ccccc2)n1 (configuration not stated) |  | 0.44 µM | 
CCCCCCCCCCCCn1nnc(C(NC(=O)c2ccc(C(F)(F)F)cc2)c2ccccc2)n1 (configuration not stated) | -10% | 0.85 µM | 
CCCCCCCCCCCCn1nnc(C(NC(=O)c2ccc([N+](=O)[O-])cc2)c2ccccc2)n1 (configuration not stated) | 8% | 0.54 µM | 
CCCCCCCCCCCCn1nnc(C(NC(=O)c2c(OC)cc(OC)cc2OC)c2ccccc2)n1 (configuration not stated) | -36% | 1.7 µM | 
CCCCCCCCCCCCn1nnnc1C(NC(=O)c1cccc([N+](=O)[O-])c1)c1ccccc1 (configuration not stated) | -31% | 0.19 µM | 
CCCCCCCCCCCCn1nnc(C(NC(=O)c2ccccc2)c2ccccc2)n1 (configuration not stated) | -5% | 0.35 µM | 
CCCCCCCCCCCCn1nnnc1C(NC(=O)c1c(Cl)cccc1Cl)c1ccccc1 (configuration not stated) | -31% | 0.38 µM | 
CCCCCCCCCCCCn1nnc(C(NC(=O)c2ccnc(SC)c2)c2ccccc2)n1 (configuration not stated) | -68% | 0.08 µM | 
CCCCCCCCCCC(C)(C)C(=O)Nc1c(OC)cc(OC)cc1OC [CL-976] | -73% |  | 
